Read-outs that look alike come from different tables or passages of the source.
Key:
[1] = test system: P. falciparum 3D7 parasites; assay: P. falciparum growth inhibition assay, 2-cycle (120 h treatment), delayed-death screen and dose-response; format: cell-based, Plasmodium falciparum; details: for activity at 2 µg/mL: Plasmodium falciparum, 3D7
[2] = test system: T. gondii RH strain (RH-Tub-eYFP) tachyzoites; assay: microbe, parasite or virus in culture; format: cell-based, Toxoplasma gondii; details: 72 h; for percent parasite growth at 2 µg/mL: Toxoplasma gondii
[3] = test system: P. falciparum 3D7 parasites; assay: P. falciparum growth inhibition assay, 1-cycle (72 h treatment), SYBR DNA staining (library screen at 2 μg/mL and dose-response); format: cell-based, Plasmodium falciparum; details: for activity at 2 µg/mL: Plasmodium falciparum, 3D7
[4] = P. falciparum 3D7, 120 h, parasite screen at 2 μg/mL, % growth, replicate 1
[5] = P. falciparum 3D7, 120 h, parasite screen at 2 μg/mL, % growth, replicate 2
[6] = T. gondii, parasite screen at 2 μg/mL, % growth, replicate 1
[7] = T. gondii, parasite screen at 2 μg/mL, % growth, replicate 2
[8] = P. falciparum 3D7, 72 h, parasite screen at 2 μg/mL, % growth, replicate 1
[9] = P. falciparum 3D7, 72 h, parasite screen at 2 μg/mL, % growth, replicate 2
[10] = P. falciparum, 120 h, screen at 2 μg/mL, replicate 1
[11] = P. falciparum, 120 h, screen at 2 μg/mL, replicate 2
[12] = T. gondii, screen at 2 μg/mL, replicate 1
[13] = T. gondii, screen at 2 μg/mL, replicate 2
[14] = P. falciparum, 72 h, screen at 2 μg/mL, replicate 1
[15] = P. falciparum, 72 h, screen at 2 μg/mL, replicate 2
[16] = P. falciparum 3D7, 120 h, library screen at 2 μg/mL, % growth, replicate 1
[17] = P. falciparum 3D7, 120 h, library screen at 2 μg/mL, % growth, replicate 2
[18] = T. gondii RH, library screen at 2 μg/mL, % growth, replicate 1
[19] = T. gondii RH, library screen at 2 μg/mL, % growth, replicate 2
[20] = P. falciparum 3D7, 72 h, library screen at 2 μg/mL, % growth, replicate 1
[21] = P. falciparum 3D7, 72 h, library screen at 2 μg/mL, % growth, replicate 2

OC[C@H]1O[C@@H](n2cnc3c2N=CNC[C@H]3O)C[C@@H]1O [BIA-P1273]
Pf_120h_%Growth_Rep1 [1, 4]: 57.41% | Pf_120h_%Growth_Rep2 [1, 5]: 140.11% | Tg_72h_%Growth_Rep1 [2, 6]: 120.62% | Tg_72h_%Growth_Rep2 [2, 7]: 91.66% | Pf_72h_%Growth_Rep1 [3, 8]: 69.65% | Pf_72h_%Growth_Rep2 [3, 9]: 72.25%

CC(=O)O[C@H]1CC[C@]2(C)[C@H]3CC[C@]4(C)Oc5oc(C)cc(=O)c5C[C@H]4[C@]3(C)CC[C@H]2C1(C)C [Chevalone C]
Pf_120h_%Growth_Rep1 [1, 10]: 145.74% | Pf_120h_%Growth_Rep2 [1, 11]: 96.88% | Tg_72h_%Growth_Rep1 [2, 12]: 84.01% | Tg_72h_%Growth_Rep2 [2, 13]: 91.63% | Pf_72h_%Growth_Rep1 [3, 14]: 92.41% | Pf_72h_%Growth_Rep2 [3, 15]: 79.15%

CCCCCC[C@H]1C(=O)O[C@H](C)[C@H](NC(=O)c2cccc(NC=O)c2O)C(=O)O[C@@H](C)[C@@H]1OC(=O)CC(C)C [Antimycin A1]
Pf_120h_%Growth_Rep1 ([1]; library screen at 2 μg/mL, 120 h, % growth, replicate 1): -1.25% | Pf_120h_%Growth_Rep2 ([1]; library screen at 2 μg/mL, 120 h, % growth, replicate 2): 6.08% | Tg_72h_%Growth_Rep1 ([2]; library screen at 2 μg/mL, % growth, replicate 1): 5.65% | Tg_72h_%Growth_Rep2 ([2]; library screen at 2 μg/mL, % growth, replicate 2): 4.89% | Pf_72h_%Growth_Rep1 ([3]; library screen at 2 μg/mL, 72 h, % growth, replicate 1): 7.57% | Pf_72h_%Growth_Rep2 ([3]; library screen at 2 μg/mL, 72 h, % growth, replicate 2): 13.46%

CC[C@H]1C[C@@H]2CC[C@@H](O2)[C@@H](C)C(=O)O[C@H](C)C[C@H]2CC[C@H](O2)[C@H](C)C(=O)O[C@@H](C)C[C@@H]2CC[C@@H](O2)[C@@H](C)C(=O)O[C@H](C)C[C@H]2CC[C@H](O2)[C@H](C)C(=O)O1 [BIA-M1055]
Pf_120h_%Growth_Rep1 [1, 4]: 15.60% | Pf_120h_%Growth_Rep2 [1, 5]: 21.38% | Tg_72h_%Growth_Rep1 [2, 6]: 3.56% | Tg_72h_%Growth_Rep2 [2, 7]: 1.37% | Pf_72h_%Growth_Rep1 [3, 8]: 7.23% | Pf_72h_%Growth_Rep2 [3, 9]: 6.66%

CCC(C)C1OC2(CCC1C)CC1CC(CC=C(C)C(OC3CC(OC)C(O)C(C)O3)C(C)C=CC=C3COC4C(O)C(C)=CC(C(=O)O1)C34O)O2 (stereo not drawn) [BIA-I1150]
Pf_120h_%Growth_Rep1 [1, 16]: 91.15% | Pf_120h_%Growth_Rep2 [1, 17]: 112.03% | Tg_72h_%Growth_Rep1 [2, 18]: 134.07% | Tg_72h_%Growth_Rep2 [2, 19]: 88.13% | Pf_72h_%Growth_Rep1 [3, 20]: 84.82% | Pf_72h_%Growth_Rep2 [3, 21]: 14.34%

O=C(O)/C=C/c1ccc(O)cc1 [Coumaric acid, p-]
Pf_120h_%Growth_Rep1 [1, 10]: 65.95% | Pf_120h_%Growth_Rep2 [1, 11]: 100.33% | Tg_72h_%Growth_Rep1 [2, 12]: 117.43% | Tg_72h_%Growth_Rep2 [2, 13]: 104.71% | Pf_72h_%Growth_Rep1 [3, 14]: 85.52% | Pf_72h_%Growth_Rep2 [3, 15]: 91.08%

O=C1CCCC2C3CC(CN12)C1CCCCN1C3 (stereo not drawn) [BIA-L1951]
Pf_120h_%Growth_Rep1 [1, 16]: 173.37% | Pf_120h_%Growth_Rep2 [1, 17]: 101.50% | Tg_72h_%Growth_Rep1 [2, 18]: 86.61% | Tg_72h_%Growth_Rep2 [2, 19]: 107.54% | Pf_72h_%Growth_Rep1 [3, 20]: 95.10% | Pf_72h_%Growth_Rep2 [3, 21]: 93.40%

O=C(N[C@H](COC(=O)[C@H](Cc1ccccc1)NC(=O)c1ccccc1)Cc1ccccc1)c1ccccc1 [Asperphenamate]
activity at 2 µg/mL ([1]; library screen at 2 μg/mL, 120 h, % growth, replicate 1, read-out: Pf_120h_%Growth_Rep1): 69.7% | activity at 2 µg/mL ([1]; library screen at 2 μg/mL, 120 h, % growth, replicate 2, read-out: Pf_120h_%Growth_Rep2): 85.4% | percent parasite growth at 2 µg/mL ([2]; library screen at 2 μg/mL, % growth, replicate 1, read-out: Tg_72h_%Growth_Rep1): 150% | percent parasite growth at 2 µg/mL ([2]; library screen at 2 μg/mL, % growth, replicate 2, read-out: Tg_72h_%Growth_Rep2): 107% | activity at 2 µg/mL ([3]; library screen at 2 μg/mL, 72 h, % growth, replicate 1, read-out: Pf_72h_%Growth_Rep1): 84.3% | activity at 2 µg/mL ([3]; library screen at 2 μg/mL, 72 h, % growth, replicate 2, read-out: Pf_72h_%Growth_Rep2): 83.3%

CN(C)[C@@H]1C(=O)C(C(N)=O)=C(O)[C@@]2(O)C(=O)C3=C(O)c4c(O)cccc4C[C@H]3C[C@@H]12.Cl [Sancycline hydrochloride]
Pf_120h_%Growth_Rep1 ([1]; P. falciparum, 120 h, parasite screen 2 μg/mL, % growth, replicate 1): 6.81% | Pf_120h_%Growth_Rep2 ([1]; P. falciparum, 120 h, parasite screen 2 μg/mL, % growth, replicate 2): 7.98% | Tg_72h_%Growth_Rep1 ([2]; T. gondii, parasite screen 2 μg/mL, % growth, replicate 1): 58.51% | Tg_72h_%Growth_Rep2 ([2]; T. gondii, parasite screen 2 μg/mL, % growth, replicate 2): 60.28% | Pf_72h_%Growth_Rep1 ([3]; P. falciparum, 72 h, parasite screen 2 μg/mL, % growth, replicate 1): 1.26% | Pf_72h_%Growth_Rep2 ([3]; P. falciparum, 72 h, parasite screen 2 μg/mL, % growth, replicate 2): 7.80%
